The text below walks through data of patent publication US6750256B1, “Use of aromatic aldehydes as insecticides” (Proguard, Inc., priority 1994, dated 2004).

Data set [1] concerns thrips insects (Frankliniella occidentalis). As to the kind of experiment: Residual activity on treated filter paper against thrips. In kind it is in vivo. Particulars: rehydrated 24 and 72 hours after spraying, thrips exposed one hour. The procedure: In the first experiment, two ml of two concentrations of CNMA (0.3 and 1%) were sprayed on filter paper (Whatman). As a negative control, two ml of water was also sprayed on filter paper. Twenty-four hours later, two ml of water were sprayed on treatment and control filter paper, which were then dried for 30 min. Approximately 30 thrips insects (Frankliniella occidentalis) were introduced onto the treated filter papers and the number of F. occidentalis were observed after one hour. Mean mortality was calculated for each treatment. After 72 hours, the treated filter papers were flipped over and only the negative control filter paper and the filter paper treated with 1% CNMA were sprayed with 2 ml of water and allowed to dry for 30 minutes. Approximately 30 thrips were introduced onto the two treated filter papers and after one hour the number of dead F. occidentalis were observed and the mean mortality calculated for each treatment. A similar assay was conducted using AHCNMA. Mean mortality was higher for rehydrated filter papers compared to non-rehydrated filter papers over time.

In data set [2] the test system is cat flea (Ctenocepalides felis). As to the kind of experiment: Cat flea contact treatment on sprayed carpet plugs. In kind it is in vivo. Particulars: 72 hours. As to the method: The treatment of cat flea (Ctenocepalides felis) with various formulations containing alpha hexyl cinnamaldehyde is tested as follows. In a double blind experiment, variable concentrations of the formulae were tested for activity against cat flea (Ctenocepalides felis). The initial experiments tested alpha hexyl cinnamaldehyde at concentrations of 5%, 10% and 20% in 6% Tween 80. As controls, a formula blank containing 6% Tween 80 and negative control with no formulae were tested. Fleas were put in direct contact with the formulae and mortality was assessed both visually and by probing at 72 hours after contact.
Approximately […] of each formula concentration was sprayed on 0.279 square meter carpet section (DuPont) at 20 PSI. After allowing to air dry (20 minutes), four plugs each 14 cm in diameter were cut from each treated carpet section. One plug was used for each replicate for four total replications. For each treatment and replicate, 25 fleas were introduced on each plug. Plugs were then rolled and put in an escape proof, ventilated 2 liter container. After 72 hours mortality was assessed.

For data set [3] the following is noted: at 25° C.; cited from earlier work.
For data set [4] the following is noted: cited from earlier work.
In a further data set the test system is rats. The following applies: cited from earlier work.
In data set [5] the test system is human subjects. Particulars: 20% in diethylphthalate; 100 human subjects; cited from earlier work.
Data set [6] relates to human subjects. Particulars: 12% in petrolatum; 48 hour closed-patch test on human subjects; cited from earlier work.
Data set [7] deals with two-spotted spider mite, Tetranychus urticae. As to the kind of experiment: Spider mite treated petri dish contact bioassay. The following applies: positive control, 10 ppm; 24 hours contact. In kind it is in vivo. The procedure:
Activity of cinnamic aldehyde and/or coniferyl aldehyde against two-spotted spider mite, Tetranychus urticae is determined as follows. In a double blind experiment, intersurfaces of petri dishes (60 mm diameter) were treated with 100 μl of a test formulation and allowed to air dry and used within the hour. Twenty adult spider mites were put in each dish and the percent of mortality of the spider mites after 24 hours in contact with the treated dishes Was determined.

The subject of data set [8] is Adult human lice (Pediculus humanus). In kind it is in vivo. The following applies: 2% in water, lice submerged 1, 4 or 10 minutes. As to the method:
Adult human lice (Pediculus humanus) were treated with α-butyl cinnamic aldehyde to determine its pediculicidal activity. […] For each of four replicates, 25 mixed sex lice were placed in a 9 dram plastic vial and covered with a screened plunger to keep the lice from floating to the surface. The vial containing the lice was dipped into a 100 ml beaker containing 2% α-butyl cinnamic aldehyde, which was dissolved in water or distilled water as a negative control. Lice were submerged in the 2% α-butyl cinnamic aldehyde for 1, 4 or 10 minutes. After this time, the test container was removed from the treatment, submerged in a 1000 mL beaker containing distilled water (32° C.) from a wash bottle. Subsequently, lice were allowed to recover in an incubator maintained at 31.7° C. in 60% RH (relative humidity) for 1 hour. Following the recovery period, lice were examined for their ability to move toward heat. For this observation, the lice were placed on a patch which was placed on a second patch that was on top of a slide warmer maintained at 37° C. Lice not dead or morbid (unable to move towards heat 1 hour after treatment; sickly, but not necessarily dying; may recover by 24 hours), will move to the lower patch. Lice again were examined for their ability to move towards 24 hours later. […]

As to `CCCCCCC(C=O)=Cc1ccccc1` [HCA, 2-(phenylmethylene) octanal], the “residual activity in words” value in data set [1] is on record as “residual activity”. The “Percent Mortality” value is recorded as 84% in [2] (5% wt/vol in 6% Tween 80), 92% in data set [2] (10% wt/vol in 6% Tween 80) and 86% in [2] (20% wt/vol in 6% Tween 80). The flea mortality result in data set [2] (all treatments (5%, 10% and 20% in 6% Tween 80)) is on record as “greater than 80%”. Further, the vapor pressure in data set [3] was 70×10^−5 mm Hg. For the same molecule, the “dermal LD50” value in data set [4] is reported as “greater than 3 g/kg”. In addition, in the data set with rats, the “oral LD50” value is 3100 mg/kg. In addition, the “reactions in repeated insult patch test” value in the data set with human subjects [5] is recorded as “no positive reactions”. Besides, the irritation entry in the data set with human subjects [6] is reported as “no irritation”.
Turning to `CCN(CC)c1cccc(C)c1` [N,N-diethyl-m-toluamine, reference compound], in data set [3], the vapor pressure is 167×10^−5 mm Hg.
For the molecule `CNC(=O)Oc1cccc2ccccc12` [Sevin, reference compound], the “Percent Mortality (24 hours)” value in data set [7] came to 100%.
Regarding `CCCCC(C=O)=Cc1ccccc1` [α-butyl cinnamic aldehyde], in data set [8] (at 24 hours), the mortality stood at 98.6%. In addition, the knockdown in data set [8] (at the 1 hour time point) is on record as 100%.

A word on the mortality: it is the share of the test organisms that died. A lower mortality goes with a weak lethal effect.
